Measurements as given in ChEMBL document CHEMBL1137005 (Bioorg Med Chem Lett, 2009).

Legend:
Epoxide hydrolase 1 = molecular target: T1, Epoxide hydrolase 1 (Homo sapiens, UniProt P07099); assay: Inhibition of human microsomal epoxide hydrolase
T1 sequence (P07099 whole entry): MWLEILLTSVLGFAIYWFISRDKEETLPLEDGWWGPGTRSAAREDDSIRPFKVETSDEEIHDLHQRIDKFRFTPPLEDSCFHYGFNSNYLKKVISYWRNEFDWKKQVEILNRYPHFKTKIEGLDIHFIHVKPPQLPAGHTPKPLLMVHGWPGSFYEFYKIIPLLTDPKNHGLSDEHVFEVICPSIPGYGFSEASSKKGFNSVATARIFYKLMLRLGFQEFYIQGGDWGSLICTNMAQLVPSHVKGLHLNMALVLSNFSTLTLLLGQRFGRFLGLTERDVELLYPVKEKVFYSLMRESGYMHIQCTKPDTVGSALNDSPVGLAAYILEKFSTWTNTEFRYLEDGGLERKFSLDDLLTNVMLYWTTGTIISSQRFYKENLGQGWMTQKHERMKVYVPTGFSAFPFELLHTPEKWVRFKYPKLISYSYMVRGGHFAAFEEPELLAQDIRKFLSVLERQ

[1] = molecular target: T2, Bifunctional epoxide hydrolase 2 (Homo sapiens, UniProt P34913); assay: Inhibition of human soluble epoxide hydrolase
T2 sequence (P34913 whole entry): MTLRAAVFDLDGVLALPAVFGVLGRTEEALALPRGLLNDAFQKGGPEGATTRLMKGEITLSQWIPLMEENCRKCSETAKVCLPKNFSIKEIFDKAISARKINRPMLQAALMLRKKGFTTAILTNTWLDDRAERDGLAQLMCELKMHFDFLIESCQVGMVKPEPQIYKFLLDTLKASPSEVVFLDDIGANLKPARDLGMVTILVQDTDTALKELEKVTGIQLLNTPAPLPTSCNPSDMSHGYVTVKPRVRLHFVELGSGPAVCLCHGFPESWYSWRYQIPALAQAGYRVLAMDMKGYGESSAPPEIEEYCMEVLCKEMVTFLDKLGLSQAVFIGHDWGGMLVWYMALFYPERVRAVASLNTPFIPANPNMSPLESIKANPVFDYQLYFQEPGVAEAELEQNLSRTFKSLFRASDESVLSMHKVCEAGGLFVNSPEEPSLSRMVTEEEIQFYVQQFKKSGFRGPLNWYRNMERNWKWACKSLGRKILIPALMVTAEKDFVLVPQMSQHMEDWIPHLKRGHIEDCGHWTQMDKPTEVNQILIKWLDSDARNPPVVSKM

[2] = molecular target: T3, Bifunctional epoxide hydrolase 2 (Rattus norvegicus, UniProt P80299); assay: Inhibition of rat soluble epoxide hydrolase
T3 sequence (P80299 whole entry): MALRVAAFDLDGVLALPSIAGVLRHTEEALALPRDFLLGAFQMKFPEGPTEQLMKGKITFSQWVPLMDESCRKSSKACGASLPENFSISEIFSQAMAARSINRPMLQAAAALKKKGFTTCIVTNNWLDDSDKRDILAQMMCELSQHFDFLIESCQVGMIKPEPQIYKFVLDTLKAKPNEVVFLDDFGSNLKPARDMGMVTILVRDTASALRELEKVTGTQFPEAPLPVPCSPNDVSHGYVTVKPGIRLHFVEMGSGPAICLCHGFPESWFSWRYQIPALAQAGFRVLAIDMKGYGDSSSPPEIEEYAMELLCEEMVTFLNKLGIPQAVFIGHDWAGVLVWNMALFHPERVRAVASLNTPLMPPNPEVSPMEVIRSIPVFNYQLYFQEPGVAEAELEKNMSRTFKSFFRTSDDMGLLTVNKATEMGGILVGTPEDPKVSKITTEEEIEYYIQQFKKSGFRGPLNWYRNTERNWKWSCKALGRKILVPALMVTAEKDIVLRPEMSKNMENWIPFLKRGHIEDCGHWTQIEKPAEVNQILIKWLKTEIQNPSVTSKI

[3] = molecular target: T2, Bifunctional epoxide hydrolase 2; assay: Inhibition of human soluble epoxide hydrolase in HEK293 cells assessed as DHET production; assay type: cell-based
Cytochrome P450 2C9 = Cytochrome P450 2C9 (Homo sapiens, UniProt P11712); assay: Inhibition of CYP2C9; assay type: ADME
Cytochrome P450 2D6 = Cytochrome P450 2D6 (Homo sapiens, UniProt P10635); assay: Inhibition of CYP2D6; assay type: ADME
Chain of Cytochrome P450 2D6 (P10635 whole entry): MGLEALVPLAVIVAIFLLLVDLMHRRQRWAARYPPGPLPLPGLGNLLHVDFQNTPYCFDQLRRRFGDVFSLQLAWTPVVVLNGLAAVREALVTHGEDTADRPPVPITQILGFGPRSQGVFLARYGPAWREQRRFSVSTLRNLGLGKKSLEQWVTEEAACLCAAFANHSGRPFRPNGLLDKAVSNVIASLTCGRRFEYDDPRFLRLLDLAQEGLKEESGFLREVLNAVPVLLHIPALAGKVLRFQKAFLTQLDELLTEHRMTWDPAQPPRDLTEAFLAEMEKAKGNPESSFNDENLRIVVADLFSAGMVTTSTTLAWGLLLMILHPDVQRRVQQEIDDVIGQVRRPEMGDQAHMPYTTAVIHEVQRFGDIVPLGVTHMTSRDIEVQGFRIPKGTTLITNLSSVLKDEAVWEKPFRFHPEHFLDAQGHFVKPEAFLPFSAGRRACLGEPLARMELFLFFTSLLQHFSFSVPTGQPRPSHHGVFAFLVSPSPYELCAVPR

Cytochrome P450 3A4 = Cytochrome P450 3A4 (Homo sapiens, UniProt P08684); assay: Inhibition of CYP3A4; assay type: ADME
[4] = Binding affinity to […] channel diltiazem binding site
[5] = Inhibition of potassium channel IKr
[6] = molecular target: Sodium channel protein type 5 subunit alpha (Homo sapiens, UniProt Q14524); assay: Inhibition of Voltage-gated sodium channel subunit alpha Nav1.5
Chain of Sodium channel protein type 5 subunit alpha (Q14524 whole entry): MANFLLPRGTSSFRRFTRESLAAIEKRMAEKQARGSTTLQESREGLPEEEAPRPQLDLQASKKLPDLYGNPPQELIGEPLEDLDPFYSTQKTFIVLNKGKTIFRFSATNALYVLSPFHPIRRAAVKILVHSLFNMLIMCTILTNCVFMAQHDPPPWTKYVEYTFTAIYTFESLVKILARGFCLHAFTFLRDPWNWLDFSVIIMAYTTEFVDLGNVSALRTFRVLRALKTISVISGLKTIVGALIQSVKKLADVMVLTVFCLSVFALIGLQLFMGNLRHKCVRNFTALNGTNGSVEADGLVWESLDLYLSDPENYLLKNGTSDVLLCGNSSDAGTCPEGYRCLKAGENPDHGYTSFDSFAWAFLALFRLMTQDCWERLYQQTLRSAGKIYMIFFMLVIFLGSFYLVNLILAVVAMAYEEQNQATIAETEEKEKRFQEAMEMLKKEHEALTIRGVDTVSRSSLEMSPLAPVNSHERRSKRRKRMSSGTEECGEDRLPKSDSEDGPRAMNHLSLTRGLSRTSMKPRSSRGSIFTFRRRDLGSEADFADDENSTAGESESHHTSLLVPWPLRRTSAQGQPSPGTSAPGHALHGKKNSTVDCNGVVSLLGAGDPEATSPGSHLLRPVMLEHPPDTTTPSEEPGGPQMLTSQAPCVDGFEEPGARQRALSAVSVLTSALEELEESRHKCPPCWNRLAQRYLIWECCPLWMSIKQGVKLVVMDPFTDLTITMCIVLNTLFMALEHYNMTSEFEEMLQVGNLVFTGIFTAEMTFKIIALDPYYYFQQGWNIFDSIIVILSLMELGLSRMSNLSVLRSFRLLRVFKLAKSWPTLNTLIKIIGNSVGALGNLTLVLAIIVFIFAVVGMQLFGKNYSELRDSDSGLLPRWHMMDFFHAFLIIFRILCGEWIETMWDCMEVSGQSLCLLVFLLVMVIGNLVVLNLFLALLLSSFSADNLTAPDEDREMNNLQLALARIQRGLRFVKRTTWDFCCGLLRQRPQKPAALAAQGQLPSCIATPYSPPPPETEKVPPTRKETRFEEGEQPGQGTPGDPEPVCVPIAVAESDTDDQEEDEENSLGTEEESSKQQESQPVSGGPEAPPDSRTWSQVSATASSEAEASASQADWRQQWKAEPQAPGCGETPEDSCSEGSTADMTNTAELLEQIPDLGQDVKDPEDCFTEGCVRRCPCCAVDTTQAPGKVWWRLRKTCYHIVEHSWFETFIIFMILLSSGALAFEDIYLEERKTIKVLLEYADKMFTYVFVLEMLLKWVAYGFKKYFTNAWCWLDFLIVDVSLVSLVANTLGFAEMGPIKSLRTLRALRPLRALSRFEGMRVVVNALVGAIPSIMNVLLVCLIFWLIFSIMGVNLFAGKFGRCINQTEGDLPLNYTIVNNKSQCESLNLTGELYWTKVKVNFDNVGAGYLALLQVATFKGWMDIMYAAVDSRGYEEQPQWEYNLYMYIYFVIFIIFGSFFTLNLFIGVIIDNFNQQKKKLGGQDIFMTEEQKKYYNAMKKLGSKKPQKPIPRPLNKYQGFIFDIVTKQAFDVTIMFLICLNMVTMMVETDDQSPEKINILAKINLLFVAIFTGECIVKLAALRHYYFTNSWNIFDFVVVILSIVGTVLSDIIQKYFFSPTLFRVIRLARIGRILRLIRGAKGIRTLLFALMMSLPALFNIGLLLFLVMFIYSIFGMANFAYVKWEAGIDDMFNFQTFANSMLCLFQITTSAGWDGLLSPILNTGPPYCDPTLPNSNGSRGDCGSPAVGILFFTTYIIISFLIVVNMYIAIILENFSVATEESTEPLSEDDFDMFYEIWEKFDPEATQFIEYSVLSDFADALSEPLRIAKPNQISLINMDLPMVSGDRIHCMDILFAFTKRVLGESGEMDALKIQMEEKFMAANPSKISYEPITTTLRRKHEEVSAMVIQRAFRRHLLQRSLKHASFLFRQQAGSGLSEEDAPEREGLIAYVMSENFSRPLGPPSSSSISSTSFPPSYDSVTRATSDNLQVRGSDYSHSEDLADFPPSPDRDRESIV

[7] = Bioavailability in rat at 1 mg/kg, iv and 2 mg/kg, po; assay type: ADME, organism-based; details: in vivo
[8] = Clearance in rat at 1 mg/kg, iv and 2 mg/kg, po; assay type: ADME, organism-based; details: in vivo
[9] = Volume of distribution at steady state in rat at 1 mg/kg, iv and 2 mg/kg, po; assay type: ADME, organism-based; details: in vivo, read-out: Vdss
[10] = Half life in rat at 1 mg/kg, iv and 2 mg/kg, po; assay type: ADME, organism-based; details: in vivo
Blood = assay: Inhibition of DHET production in rat whole blood at 1 uM after 1 hr; assay type: functional; parameters: Activity: scale not given: the % may be the effect or the level left
[11] = molecular target: Voltage-dependent L-type calcium channel subunit alpha-1C (Homo sapiens, UniProt Q13936); assay: Activity at Cav 1.2 channel
Chain of Voltage-dependent L-type calcium channel subunit alpha-1C (Q13936 whole entry): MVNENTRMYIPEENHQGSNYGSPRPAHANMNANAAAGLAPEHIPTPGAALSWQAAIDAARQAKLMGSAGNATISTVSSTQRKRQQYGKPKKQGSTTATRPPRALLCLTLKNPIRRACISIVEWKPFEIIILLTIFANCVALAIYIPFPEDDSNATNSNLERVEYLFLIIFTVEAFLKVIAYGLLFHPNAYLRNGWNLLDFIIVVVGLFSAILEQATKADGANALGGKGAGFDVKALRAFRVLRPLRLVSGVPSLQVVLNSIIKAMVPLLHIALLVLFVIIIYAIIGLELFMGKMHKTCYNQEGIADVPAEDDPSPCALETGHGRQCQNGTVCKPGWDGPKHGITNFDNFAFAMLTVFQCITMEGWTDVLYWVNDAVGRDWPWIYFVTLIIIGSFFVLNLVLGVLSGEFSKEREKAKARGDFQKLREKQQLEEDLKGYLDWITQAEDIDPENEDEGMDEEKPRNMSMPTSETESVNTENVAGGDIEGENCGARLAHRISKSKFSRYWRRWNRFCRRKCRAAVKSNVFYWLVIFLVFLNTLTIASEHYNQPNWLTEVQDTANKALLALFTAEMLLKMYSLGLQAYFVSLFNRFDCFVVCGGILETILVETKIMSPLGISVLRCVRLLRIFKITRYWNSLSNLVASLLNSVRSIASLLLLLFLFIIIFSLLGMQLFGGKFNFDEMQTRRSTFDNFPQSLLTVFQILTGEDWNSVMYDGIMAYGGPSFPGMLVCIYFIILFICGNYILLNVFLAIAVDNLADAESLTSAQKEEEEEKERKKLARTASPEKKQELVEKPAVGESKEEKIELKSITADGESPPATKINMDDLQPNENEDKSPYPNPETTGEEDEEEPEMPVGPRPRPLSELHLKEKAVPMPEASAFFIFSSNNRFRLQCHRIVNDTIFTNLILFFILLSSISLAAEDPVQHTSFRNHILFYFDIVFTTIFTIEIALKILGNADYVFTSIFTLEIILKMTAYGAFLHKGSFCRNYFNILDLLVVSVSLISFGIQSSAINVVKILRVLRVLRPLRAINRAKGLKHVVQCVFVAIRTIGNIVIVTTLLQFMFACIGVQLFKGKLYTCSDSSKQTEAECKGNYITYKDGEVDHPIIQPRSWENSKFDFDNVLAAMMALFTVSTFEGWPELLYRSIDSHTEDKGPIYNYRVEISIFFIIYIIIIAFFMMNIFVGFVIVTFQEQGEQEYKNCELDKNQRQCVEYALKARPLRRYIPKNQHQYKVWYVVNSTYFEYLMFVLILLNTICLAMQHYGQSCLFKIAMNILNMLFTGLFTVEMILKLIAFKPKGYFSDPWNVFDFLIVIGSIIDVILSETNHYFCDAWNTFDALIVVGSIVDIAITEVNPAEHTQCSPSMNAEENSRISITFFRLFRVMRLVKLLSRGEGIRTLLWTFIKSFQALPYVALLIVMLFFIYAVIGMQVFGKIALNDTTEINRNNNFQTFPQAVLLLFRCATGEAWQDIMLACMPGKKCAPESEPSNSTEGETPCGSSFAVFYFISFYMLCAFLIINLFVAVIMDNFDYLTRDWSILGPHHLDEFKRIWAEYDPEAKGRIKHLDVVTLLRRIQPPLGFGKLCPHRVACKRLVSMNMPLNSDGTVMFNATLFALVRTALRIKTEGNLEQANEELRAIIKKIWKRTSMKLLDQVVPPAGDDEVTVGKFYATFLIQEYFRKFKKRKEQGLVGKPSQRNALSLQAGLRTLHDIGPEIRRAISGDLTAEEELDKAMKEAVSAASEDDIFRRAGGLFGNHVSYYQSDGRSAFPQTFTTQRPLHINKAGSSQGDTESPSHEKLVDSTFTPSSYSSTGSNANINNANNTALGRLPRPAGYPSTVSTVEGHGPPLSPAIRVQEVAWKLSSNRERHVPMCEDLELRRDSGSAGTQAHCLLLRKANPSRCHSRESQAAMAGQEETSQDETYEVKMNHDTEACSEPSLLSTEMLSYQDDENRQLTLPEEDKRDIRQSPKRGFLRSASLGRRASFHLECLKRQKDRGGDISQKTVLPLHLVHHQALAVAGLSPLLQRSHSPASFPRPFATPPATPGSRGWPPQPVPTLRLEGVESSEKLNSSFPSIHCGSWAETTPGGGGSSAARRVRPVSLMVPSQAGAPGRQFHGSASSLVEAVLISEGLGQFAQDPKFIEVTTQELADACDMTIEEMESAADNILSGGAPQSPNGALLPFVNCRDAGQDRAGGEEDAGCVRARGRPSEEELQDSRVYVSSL

SMILES | IC50 (Epoxide hydrolase 1) [µM] | IC50 [1] [µM] | IC50 [2] [µM] | IC50 [3] [µM] | IC50 (Cytochrome P450 2C9) [µM] | IC50 (Cytochrome P450 2D6) [µM] | IC50 (Cytochrome P450 3A4) [µM] | IC50 [4] [µM] | IC50 [5] [µM] | IC50 [6] [µM] | bioavailability [7] [%] | clearance [8] [L/h/kg] | Vd [9] [L/kg] | half-life [10] [h] | Activity (Blood) [%] | inhibition at 1 µM (Blood; Rattus norvegicus, Blood, 1 h) [%] | IC50 [11] [µM] | IC50 ([3]; hek293) [µM]
O=C(CCc1ccccc1)N1CCC2(CCc3cc(F)ccc3O2)CC1 | > 100 | 0.007 | 0.01 | 0.003 | < 10 | < 10 | > 10 | 3 | 6 | < 10 |  |  |  |  |  |  |  | 
O=C1CC2(CCN(C(=O)N[C@H]3C[C@@H]3c3ccccc3)CC2)Oc2ccccc21 |  | 0.003 | 0.009 | 0.003 | 10 | > 10 | > 10 | > 30 | 14 | > 10 |  |  |  |  |  |  |  | 
CS(=O)(=O)c1ccc2c(c1)CCC1(CCN(C(=O)Cc3ccc(Cl)cc3Cl)CC1)O2 |  |  | 0.004 |  |  |  |  | > 30 | 0.8 |  | 67 | 0.042 | 0.15 | 2.6 |  |  |  | 
O=C1CC2(CCN(C(=O)NC3CCc4ccccc4CC3)CC2)Oc2ccccc21 |  | 0.008 | 0.028 |  |  |  |  | 5 | 5 |  |  |  |  |  |  |  |  | 
CS(=O)(=O)c1ccc2c(c1)CCC1(CCN(C(=O)N[C@H]3C[C@@H]3c3ccccc3)CC1)O2 | 24 | 0.003 | 0.023 | < 0.001 | > 10 | > 10 | > 10 | 28 | 15 | > 10 |  |  |  |  |  |  |  | 
O=C(c1ccc(C(F)(F)F)cc1)N1CCC2(CCc3ccccc3O2)CC1 | 22 | 0.004 | 0.01 | < 0.001 | > 10 | > 10 | > 10 | 2 | 1 | > 10 |  |  |  |  | 48 |  |  | 
CS(=O)(=O)c1ccc2c(c1)CCC1(CCN(C(=O)N[C@H]3C[C@@H]3c3ccccc3)CC1)O2.Cl (racemic) |  |  |  |  |  |  |  |  |  |  | 86 | 0.042 | 0.23 | 3.9 |  | 32 |  | 
O=C1CC2(CCN(C(=O)NC3CCc4ccccc43)CC2)Oc2ccccc21 (racemic) | 28 | 0.02 | 0.035 | 0.03 | < 10 | > 10 | > 10 | 6 | 6 | < 10 |  |  |  |  |  |  |  | 
O=C(N[C@H]1C[C@@H]1c1ccccc1)N1CCC2(CCc3cc(F)ccc3O2)CC1 (racemic) | > 100 | 0.003 | 0.018 | < 0.001 | < 10 | > 10 | > 10 | 2 | 7 | > 10 |  |  |  |  |  |  |  | 
CS(=O)(=O)c1ccc2c(c1)C(=O)CC1(CCN(C(=O)N[C@@H]3CC[C@@H](c4ccccc4)C3)CC1)O2 (racemic) | 10 | 0.007 | 0.021 |  | < 10 | > 10 | > 10 | 18 | 3 | > 10 |  |  |  |  |  |  |  | 
O=C1CC2(CCN(C(=O)NC3CCc4ccccc4C3)CC2)Oc2ccccc21 (racemic) | 26 | 0.005 | 0.039 |  | > 10 | > 10 | > 10 | 9 | 12 | 1 |  |  |  |  |  |  |  | 
Cn1nccc1-c1ccc2c(c1)C(=O)CC1(CCN(C(=O)N[C@H]3C[C@@H]3c3ccccc3)CC1)O2 (racemic) | 15 | 0.004 | 0.021 | < 0.001 | > 10 | > 10 | > 10 |  | 4 | > 10 |  |  |  |  |  |  | 28 | 
Cn1nccc1Nc1ccc2c(c1)C(=O)CC1(CCN(C(=O)N[C@H]3C[C@@H]3c3ccccc3)CC1)O2 (racemic) | > 100 | 0.003 | 0.013 | < 0.001 | 10 | > 10 | > 10 |  | 2 | > 10 |  |  |  |  |  |  | 26 | 
CS(=O)(=O)c1ccc2c(c1)C(=O)CC1(CCN(C(=O)N[C@H]3C[C@@H]3c3ccccc3)CC1)O2 (racemic) |  | 0.004 | 0.012 |  | > 10 | > 10 | > 10 | > 26 | 4 | > 10 | 49 | 0.06 | 0.2 | 2.6 |  |  |  | 
O=C1CC2(CCN(C(=O)N[C@H]3C[C@@H]3c3ccccc3)CC2)Oc2ccc(-c3ccncc3)cc21 (racemic) | > 100 | 0.001 | 0.007 |  | < 10 | < 10 | < 10 | 4 | 0.2 | > 10 |  |  |  |  |  |  |  | 
O=C(N[C@H]1C[C@@H]1c1ccccc1)N1CCC2(CCc3ccccc3O2)CC1 (racemic) | > 100 | 0.004 | 0.011 |  | < 10 | > 10 | > 10 | 6 | 15 | > 10 |  |  |  |  | 20 |  |  | 
CS(=O)(=O)c1ccc2c(c1)CCC1(CCCN(C(=O)N[C@H]3C[C@@H]3c3ccccc3)CC1)O2 (relative stereo) | 55 | 0.011 | 0.049 | 0.003 | > 10 | > 10 | > 10 |  | 2 | > 10 |  |  |  |  |  |  | > 30 | 
O=C1CC2(CCN(C(=O)N[C@H]3C[C@@H]3c3ccccc3)CC2)Oc2cccnc21 (relative stereo) | > 100 | 0.008 | 0.02 | 0.004 |  | > 10 | > 10 |  | > 30 | > 10 |  |  |  |  | 12 |  | > 30 | 
O=C1CC2(CCN(C(=O)N[C@H]3C[C@@H]3c3ccccc3)CC2)Oc2ccccc21 (relative stereo) | > 100 | 0.011 | 0.029 |  | > 10 | > 10 | > 10 |  | 17 | > 10 |  |  |  |  |  |  |  | 0.003
O=C(N[C@H]1C[C@@H]1c1ccccc1)N1CCC2(CCc3ncccc3O2)CC1 (relative stereo) | > 100 | 0.005 | 0.021 | < 0.001 | > 10 | > 10 | > 10 |  | > 30 | > 10 |  |  |  |  | 9.2 |  | 20 | 
O=C(N[C@H]1C[C@@H]1c1ccccc1)N1CCC2(CC1)CC(O)c1ncccc1O2 (relative stereo) | > 100 | 0.008 | 0.031 | 0.008 | > 10 | > 10 | > 10 | > 30 | > 30 | > 10 |  |  |  |  | 7.3 |  |  | 
